Assay results taken from patent US9695155B2, “Herbicidal substituted pyrimidinyloxy benzene compounds” (E. I. DU PONT DE NEMOURS AND COMPANY, priority 2013, dated 2017).

Key:
Experiment in all cases: Test E postemergence
Italian ryegrass = assay type: in vivo, Lolium multiflorum
Source text: (§1) Seeds of plant species selected from corn (Zea mays), soybean (Glycine max), velvetleaf (Abutilon theophrasti), lambsquarters (Chenopodium album), wild poinsettia (Euphorbia heterophylla), palmer pigweed (Amaranthus palmeri), waterhemp (common waterhemp, Amaranthus rudis), surinam grass (Brachiaria decumbens), large (Lg) crabgrass (Digitaria sanguinalis), Brazilian crabgrass (Digitaria horizontalis), fall panicum (Panicum dichotomiflorum), giant foxtail (Setaria faberii), green foxtail (Setaria viridis), goosegrass (Eleusine indica), johnsongrass (Sorghum halepense), ragweed (common ragweed, Ambrosia elatior), barnyardgrass (Echinochloa crus-galli), sandbur (southern sandbur, Cenchrus echinatus), arrowleaf sida (Sida rhombifolia), Italian ryegrass (Lolium multiflorum), dayflower (Virginia (VA) dayflower, Commelina virginica), field bindweed (Convolvulus arvensis), morningglory (Ipomoea coccinea), nightshade (eastern black nightshade, Solanum ptycanthum), kochia (Kochia scoparia), yellow nutsedge (Cyperus esculentus), cocklebur (common cocklebur, Xanthium strumarium), smartweed (ladysthumb smartweed, and hairy beggarticks (Bidens pilosa), were planted into a silt loam soil and treated preemergence with test chemicals formulated in a non-phytotoxic solvent mixture which included a surfactant.
(§2) At the same time, plants from these crop and weed species and also horseweed (Canada horseweed, Conyza canadensis), waterhemp_RES1, (ALS & Triazine resistant common waterhemp, Amaranthus rudis), and waterhemp_RES2, (ALS & HPPD resistant common waterhemp, Amaranthus rudis) were planted in pots containing Redi-Earth® planting medium (Scotts Company, 14111 Scottslawn Road, Marysville, Ohio 43041) comprising spaghnum peat moss, vermiculite, wetting agent and starter nutrients were treated with postemergence applications of test chemicals formulated in the same manner. Plants ranged in height from 2 to 18 cm for postemergence treatments (1- to 4-leaf stage). Treated plants and controls were maintained in a greenhouse for 14 to 21 days, after which time all species were compared to controls and visually evaluated. Plant response ratings, summarized in Table E, are based on a scale of 0 to 100 where 0 is no effect and 100 is complete control. A dash (-) response means no test result.

wild poinsettia = assay type: in vivo, Euphorbia heterophylla
Source text: as §1, §2

dayflower = assay type: in vivo, Commelina virginica
Source text: as §1, §2

fall panicum = assay type: in vivo, Panicum dichotomiflorum
Source text: as §1, §2

[1] = Postemergence, 31 g ai/ha, scale 0 to 100
[2] = Postemergence, 62 g ai/ha, scale 0 to 100
[3] = Postemergence, 125 g ai/ha, scale 0 to 100
[4] = Postemergence, 250 g ai/ha, scale 0 to 100
[5] = postemergence, 16 g ai/ha, scale 0 to 100, 0 no effect, 100 complete control

Fc1cnc(Oc2ccccc2-n2cc(Br)cn2)nc1 [Compound 10, 2-[2-(4-bromo-1H-pyrazol-1-yl)phenoxy]-5-fluoropyrimidine]
pest or weed control at 31 g/ha (Italian ryegrass; Lolium multiflorum, post-emergence, Postemergence, 31 g ai/ha, scale 0 to 100, read-out: Plant response rating, Ryegrass, Italian): 0% | pest or weed control at 62 g/ha (Italian ryegrass; Lolium multiflorum, post-emergence, Postemergence, 62 g ai/ha, scale 0 to 100, read-out: Plant response rating, Ryegrass, Italian): 0% | pest or weed control at 125 g/ha (Italian ryegrass; Lolium multiflorum, post-emergence, Postemergence, 125 g ai/ha, scale 0 to 100, read-out: Plant response rating, Ryegrass, Italian): 0% | pest or weed control at 250 g/ha (Italian ryegrass; Lolium multiflorum, post-emergence, Postemergence, 250 g ai/ha, scale 0 to 100, read-out: Plant response rating, Ryegrass, Italian): 0% | pest or weed control at 16 g/ha (Italian ryegrass; Lolium multiflorum, post-emergence, postemergence, 16 g ai/ha, scale 0 to 100, 0 no effect, 100 complete control, read-out: Plant response rating, Ryegrass, Italian): 0% | pest or weed control at 31 g/ha (wild poinsettia; Euphorbia heterophylla, post-emergence, Postemergence, 31 g ai/ha, scale 0 to 100, read-out: Plant response rating, Poinsettia, Wild): 20% | pest or weed control at 62 g/ha (wild poinsettia; Euphorbia heterophylla, post-emergence, Postemergence, 62 g ai/ha, scale 0 to 100, read-out: Plant response rating, Poinsettia, Wild): 30% | pest or weed control at 125 g/ha (wild poinsettia; Euphorbia heterophylla, post-emergence, Postemergence, 125 g ai/ha, scale 0 to 100, read-out: Plant response rating, Poinsettia, Wild): 30% | pest or weed control at 250 g/ha (wild poinsettia; Euphorbia heterophylla, post-emergence, Postemergence, 250 g ai/ha, scale 0 to 100, read-out: Plant response rating, Poinsettia, Wild): 60% | pest or weed control at 16 g/ha (wild poinsettia; Euphorbia heterophylla, post-emergence, postemergence, 16 g ai/ha, scale 0 to 100, 0 no effect, 100 complete control, read-out: Plant response rating, Poinsettia, Wild): 5% | pest or weed control at 31 g/ha (dayflower; Commelina virginica, post-emergence, Postemergence, 31 g ai/ha, scale 0 to 100, read-out: Plant response rating, Dayflower, VA): 10% | pest or weed control at 62 g/ha (dayflower; Commelina virginica, post-emergence, Postemergence, 62 g ai/ha, scale 0 to 100, read-out: Plant response rating, Dayflower, VA): 40% | pest or weed control at 125 g/ha (dayflower; Commelina virginica, post-emergence, Postemergence, 125 g ai/ha, scale 0 to 100, read-out: Plant response rating, Dayflower, VA): 50% | pest or weed control at 250 g/ha (dayflower; Commelina virginica, post-emergence, Postemergence, 250 g ai/ha, scale 0 to 100, read-out: Plant response rating, Dayflower, VA): 75% | pest or weed control at 16 g/ha (dayflower; Commelina virginica, post-emergence, postemergence, 16 g ai/ha, scale 0 to 100, 0 no effect, 100 complete control, read-out: Plant response rating, Dayflower, VA): 5% | pest or weed control at 31 g/ha (fall panicum; Panicum dichotomiflorum, post-emergence, Postemergence, 31 g ai/ha, scale 0 to 100, read-out: Plant response rating, Panicum, Fall): 0% | pest or weed control at 62 g/ha (fall panicum; Panicum dichotomiflorum, post-emergence, Postemergence, 62 g ai/ha, scale 0 to 100, read-out: Plant response rating, Panicum, Fall): 0% | pest or weed control at 125 g/ha (fall panicum; Panicum dichotomiflorum, post-emergence, Postemergence, 125 g ai/ha, scale 0 to 100, read-out: Plant response rating, Panicum, Fall): 0% | pest or weed control at 250 g/ha (fall panicum; Panicum dichotomiflorum, post-emergence, Postemergence, 250 g ai/ha, scale 0 to 100, read-out: Plant response rating, Panicum, Fall): 0% | pest or weed control at 16 g/ha (fall panicum; Panicum dichotomiflorum, post-emergence, postemergence, 16 g ai/ha, scale 0 to 100, 0 no effect, 100 complete control, read-out: Plant response rating, Panicum, Fall): 0%

FC(F)(F)c1cnn(-c2ccccc2Oc2ncc(Cl)cn2)c1 [Compound 16]
Plant response rating, Ryegrass, Italian (Italian ryegrass; [1]): 0 | Plant response rating, Ryegrass, Italian (Italian ryegrass; [2]): 0 | Plant response rating, Ryegrass, Italian (Italian ryegrass; [3]): 0 | Plant response rating, Ryegrass, Italian (Italian ryegrass; [4]): 0 | Plant response rating, Ryegrass, Italian (Italian ryegrass; [5]): 0 | Plant response rating, Poinsettia, Wild (wild poinsettia; [1]): 60 | Plant response rating, Poinsettia, Wild (wild poinsettia; [2]): 60 | Plant response rating, Poinsettia, Wild (wild poinsettia; [3]): 70 | Plant response rating, Poinsettia, Wild (wild poinsettia; [4]): 80 | Plant response rating, Poinsettia, Wild (wild poinsettia; [5]): 50 | Plant response rating, Dayflower, VA (dayflower; [1]): 10 | Plant response rating, Dayflower, VA (dayflower; [2]): 15 | Plant response rating, Dayflower, VA (dayflower; [3]): 30 | Plant response rating, Dayflower, VA (dayflower; [4]): 40 | Plant response rating, Dayflower, VA (dayflower; [5]): 0 | Plant response rating, Panicum, Fall (fall panicum; [1]): 0 | Plant response rating, Panicum, Fall (fall panicum; [2]): 10 | Plant response rating, Panicum, Fall (fall panicum; [3]): 20 | Plant response rating, Panicum, Fall (fall panicum; [4]): 25 | Plant response rating, Panicum, Fall (fall panicum; [5]): 0
